Values joined by “and” are separate entries in the source; they are usually repeats but may differ in a detail not shown here. Equal values may be shown once. “Also recorded” adds a separate entry of the source.
Legend:
[1] = system: articular cartilage injury of the knee in rabbits; test: Macroscopic degree of healing in rabbit articular cartilage injury model; assay type: in vivo; settings: for Degree of healing Distal trochlear sulcus / Degree of healing Medial trochlear ridge / Degree of healing Proximal trochlear sulcus: individual rabbits, 3 weeks after operation; for average value of quantified data (degree of healing, points): − = 0 to +++ = 3 points
Experimental: The cartilage regeneration-promoting effect of hydroxytyrosol obtained in Production Example 1 was investigated using a rabbit articular cartilage injury model prepared experimentally.
Six female and six male rabbits (New Zealand white, 16 weeks old when introduced, body weight: from 2.00 kg to 2.55 kg) were habituated for one week under the conditions of one rabbit per cage, temperature: from 23° C. to 25° C., relative humidity: from 50% to 60%, a light/dark cycle of 12 h, 12 times air changes per hour). During this period, animals were fed with feed, which is sold commercially, and sterile tap water ad libitum.
After the period, rabbits were divided at random into two groups so that each group contains three female and three male rabbits. One group was designated as a control group and the other as a hydroxytyrosol administration group (hereinafter, HT group).
(§1) The rabbit articular cartilage injury model was prepared based on the method of Hashida et. al. (See, Macromolecular Bioscience, 3, (2003) 596-603), and Tamai et. al. (See, Carbohydrate Polymers, 48, (2002) 369-378, and Carbohydrate Polymers, 54, (2003) 251-262).
(§2) Initially, each animal was anesthetized by injecting pentobarbital sodium (40 mg/kg) intraperitoneally. Next, hairs at the knee joint of the left hind limb of the animal were clipped and disinfected with 0.5% chlorhexidine gluconate solution and 70% ethanol solution. Then, an incision was made on the skin on the lateral portion of the knee joint from the central part of the femur toward the tibial tuberosity. The articular capsule was exposed and incised. Further, the knee joint was exposed completely by dislocating the patella toward the medial side. Three holes of 2 mm size in diameter and 4 mm in depth were made by using a handdrill one at the medial trochlear ridge and two at the trochlear sulcus of the femur. The incised portion was washed with sterile saline solution and the articular capsule, and at the same time, the subcutaneous tissues and the skin were sutured with a synthetic absorbent thread and with nylon thread, respectively. During one week after the operation, the sutured portion of the skin was disinfected by povidone-iodine once a day and 10 mg/kg of oxytetracycline hydrochloride was subcutaneously administered twice a day.
(§3) After the formation of injury to articular cartilage, for the HT group, the product containing 20% by mass of hydroxytyrosol obtained in Production Example 1 was dissolved in tap water and administered using a water bottle at a rate of 500 mg/kg (100 mg/kg of hydroxytyrosol) per day for 21 days. After making sure that all of the water containing the drug was taken in, rabbits were fed with sterile tap water. The control was fed with sterile tap water ad libitum.
After the experimental period, all animals were euthanized by overdose using an intravenous injection of pentobarbital sodium (80 mg/kg). Then, knee joints were incised, and the conditions of joint cartilages were macroscopically observed. The degree, to which the injury of cartilage was healed, was evaluated based on the following standards.
• −: Degree of healing is less than 50% • +: Degree of healing is from 50% to 60% • ++: Degree of healing is from 60% to 80% • +++: Degree of healing is from 80% to 100%
Further, the above evaluation was assigned numbers: (−) was assigned with 0 point (+) was assigned with 1 point, (++) was assigned with 2 points, and (+++) was assigned with 3 points. The degree of healing of articular cartilage was expressed numerically, and Mann-Whitney's U test was performed between the control group and the HT group.
(§4) In the same way as in Example 1, the cartilage regeneration-promoting effects were investigated with respect to hydroxytyrosol (100 mg/kg per day, HT group) and with respect to glucosamine hydrochloride (800 mg/kg per day, hereinafter, GAH group) for comparison. The control group was set in the same way as in Example 1.

[2] = system: lateral vastus muscles and femoral biceps muscles; test: Muscle weight ratio (injured side vs opposite side) in rabbit articular cartilage injury model; assay type: in vivo; settings: for Muscle weight ratio Femoral biceps muscle, Mean / Muscle weight ratio Lateral vastus muscle, Mean: group mean, 6 rabbits; for Muscle weight ratio Femoral biceps muscle / Muscle weight ratio Lateral vastus muscle: individual rabbits, injured side vs opposite side
Experimental: as §1, §2, §3
For each animal, left and right lateral vastus muscles and femoral biceps muscles were collected, and weights were measured. The muscle weight ratio was calculated by comparing the side, in which cartilage injury was made, with the opposite side, and Student's t-test was performed between the control group and the HT group.
as §4

[3] = system: articular cartilage injury of the knee in rabbits; test: Histopathological examination (hematoxylin/eosin) of injured knee articular cartilage; assay type: in vivo, rabbit; settings: hematoxylin/eosin staining
Experimental: as §1, §2, §3
For each animal, femur was collected and fixed by a 10% neutral buffered forrnalin solution. […]

[4] = Observation of general conditions and body weight; assay type: in vivo, rabbit
Experimental: as §3
During the experimental period, diarrhea, appetite, and hair gloss or coat color of each rabbit were observed. In addition, body weight was measured per week.
as §4

[5] = Example 2, HT 100 mg/kg per day, GAH 800 mg/kg per day, hydrochloride, female rabbits
[6] = Example 2, HT 100 mg/kg per day, GAH 800 mg/kg per day, hydrochloride, male rabbits
[7] = Example 2, hydrochloride, female rabbits
[8] = Example 2, hydrochloride, male rabbits
[9] = Example 1, 100 mg/kg of hydroxytyrosol per day for 21 days, 100 mg/kg
[10] = Example 2, HT 100 mg/kg per day, GAH 800 mg/kg per day, female rabbits
[11] = Example 2, HT 100 mg/kg per day, GAH 800 mg/kg per day, male rabbits

Cl.N[C@H]1C(O)O[C@H](CO)[C@@H](O)[C@@H]1O (some centres unmarked) [GAH group, glucosamine hydrochloride, reference compound]
cartilage healing / regeneration compared with the control group ([1]; Example 2, HT p<0.01, GAH p<0.05, hydrochloride): promoted significantly
cartilage healing / regeneration compared with the control group ([1]; Example 2, HT p<0.01, GAH p<0.05, listed as glucosamine hydrochloride, hydrochloride): promoted the regeneration of cartilage
Degree of healing Distal trochlear sulcus [1, 5]: ++ (Degree of healing is from 60% to 80%); also recorded: +++ (Degree of healing is from 80% to 100%)
Degree of healing Medial trochlear ridge [1, 5]: +++ (Degree of healing is from 80% to 100%)
Degree of healing Proximal trochlear sulcus [1, 5]: ++ (Degree of healing is from 60% to 80%); also recorded: +++ (Degree of healing is from 80% to 100%)
Degree of healing Distal trochlear sulcus [1, 6]: ++ (Degree of healing is from 60% to 80%); also recorded: + (Degree of healing is from 50% to 60%)
Degree of healing Medial trochlear ridge [1, 6]: +++ (Degree of healing is from 80% to 100%); also recorded: ++ (Degree of healing is from 60% to 80%)
Degree of healing Proximal trochlear sulcus [1, 6]: + (Degree of healing is from 50% to 60%); also recorded: +++ (Degree of healing is from 80% to 100%)
average value of quantified data (degree of healing, points) ([1]; Example 2, control group 5.33): 7.17
muscle weight of the femoral biceps muscle (in words) ([2]; Example 2): marked decrease
muscle weight of the lateral vastus muscle (in words) ([2]; Example 2): slight decrease
Muscle weight ratio Femoral biceps muscle, Mean ([2]; Example 2, control 83.80): 83.62%
Muscle weight ratio Lateral vastus muscle, Mean ([2]; Example 2, control 91.91): 92.03%
Muscle weight ratio Femoral biceps muscle [2, 7]: 78.13% and 86.21% and 65.10%
Muscle weight ratio Lateral vastus muscle [2, 7]: 82.24% and 96.46% and 90.85%
Muscle weight ratio Femoral biceps muscle [2, 8]: 92.37% and 86.12% and 93.81%
Muscle weight ratio Lateral vastus muscle [2, 8]: 98.02% and 89.59% and 94.99%
histopathological findings at the site at which injury was created ([3]; Example 2): almost the same findings as those of the HT group
Body weight changes vs control group ([4]; Example 2): almost the same as that of the control group
general conditions ([4]; Example 2, HT 100 mg/kg per day, GAH 800 mg/kg per day): change in general conditions was not observed

OCCc1ccc(O)c(O)c1 [HT group, 2-(3,4-Dihydroxyphenyl)ethanol]
cartilage healing / regeneration compared with the control group ([1]; Example 1, Mann-Whitney's U test, p<0.05): promoted significantly
cartilage healing / regeneration compared with the control group ([1]; Example 1, Mann-Whitney's U test, p<0.05, listed as hydroxytyrosol): promoted the regeneration of cartilage
Degree of healing Distal trochlear sulcus [1, 9]: +++ (Degree of healing is from 80% to 100%); also recorded: + (Degree of healing is from 50% to 60%); also recorded: ++ (Degree of healing is from 60% to 80%)
Degree of healing Proximal trochlear sulcus [1, 9]: ++ (Degree of healing is from 60% to 80%); also recorded: +++ (Degree of healing is from 80% to 100%); also recorded: + (Degree of healing is from 50% to 60%)
Degree of healing Medial trochlear ridge ([1]; Example 1, 100 mg/kg of hydroxytyrosol per day in drinking water for 21 days, 100 mg/kg): +++ (Degree of healing is from 80% to 100%); also recorded: ++ (Degree of healing is from 60% to 80%); also recorded: + (Degree of healing is from 50% to 60%)
average value of quantified data (degree of healing, points) ([1]; Example 1, control group 4.83): 7.17
cartilage healing / regeneration compared with the control group ([1]; Example 2, HT p<0.01, GAH p<0.05): promoted significantly
cartilage healing / regeneration compared with the control group ([1]; Example 2, HT p<0.01, GAH p<0.05, listed as hydroxytyrosol): promoted the regeneration of cartilage
Degree of healing Distal trochlear sulcus [1, 10]: +++ (Degree of healing is from 80% to 100%)
Degree of healing Medial trochlear ridge [1, 10]: +++ (Degree of healing is from 80% to 100%)
Degree of healing Proximal trochlear sulcus [1, 10]: +++ (Degree of healing is from 80% to 100%); also recorded: ++ (Degree of healing is from 60% to 80%)
Degree of healing Distal trochlear sulcus [1, 11]: +++ (Degree of healing is from 80% to 100%)
Degree of healing Medial trochlear ridge [1, 11]: ++ (Degree of healing is from 60% to 80%); also recorded: +++ (Degree of healing is from 80% to 100%)
Degree of healing Proximal trochlear sulcus [1, 11]: ++ (Degree of healing is from 60% to 80%); also recorded: +++ (Degree of healing is from 80% to 100%)
average value of quantified data (degree of healing, points) ([1]; Example 2, control group 5.33): 8.17
muscle weight of the femoral biceps muscle (in words) ([2]; Example 1): little decrease
muscle weight of the lateral vastus muscle (in words) ([2]; Example 1): decreased slightly
Muscle weight ratio Lateral vastus muscle, Mean ([2]; Example 1, control 88.84): 95.93%
Muscle weight ratio Femoral biceps muscle, Mean ([2]; Example 1, control 88.99): 100.08%
Muscle weight ratio Femoral biceps muscle ([2]; Example 1, female rabbits): 100.18% and 98.45% and 93.46%
Muscle weight ratio Lateral vastus muscle ([2]; Example 1, female rabbits): 105.30% and 96.92% and 80.89%
Muscle weight ratio Femoral biceps muscle ([2]; Example 1, male rabbits): 94.80% and 106.36% and 107.22%
Muscle weight ratio Lateral vastus muscle ([2]; Example 1, male rabbits): 93.29% and 95.10% and 104.10%
muscle weight of the femoral biceps muscle (in words) ([2]; Example 2): little decrease
muscle weight of the lateral vastus muscle (in words) ([2]; Example 2): little decrease
Muscle weight ratio Femoral biceps muscle, Mean ([2]; Example 2, control 83.80): 100.59%
Muscle weight ratio Lateral vastus muscle, Mean ([2]; Example 2, control 91.91): 98.48%
Muscle weight ratio Femoral biceps muscle ([2]; Example 2, female rabbits): 90.91% and 111.86% and 93.42%
Muscle weight ratio Lateral vastus muscle ([2]; Example 2, female rabbits): 94.98% and 98.56% and 92.43%
Muscle weight ratio Femoral biceps muscle ([2]; Example 2, male rabbits): 101.37% and 104.66% and 101.31%
Muscle weight ratio Lateral vastus muscle ([2]; Example 2, male rabbits): 84.93% and 111.10% and 108.90%
histopathological findings at the site at which injury was created ([3]; Example 1): matured chondrocytes were found extensively
histopathological findings at the site at which injury was created ([3]; Example 2): matured chondrocytes were found extensively
Body weight changes vs control group ([4]; rabbit, in vivo): almost the same as that of the control group
body weight change during test period vs control group ([4]; rabbit, in vivo): significant difference was not observed
general conditions (diarrhea, appetite, hair gloss or coat color) ([4]; rabbit, in vivo, 100 mg/kg): marked change was not observed
